Test results taken from patent US20120076846A1, “Pyrethroid Compound, Preparation Process and Use Thereof” (priority 2009, published 2012).

What was measured:
[1] = tested on: female Culex pipiens pallens; test: Efficacy of pesticide incense coils on mosquito (GB13917.4-92, airtight cask); assay type: in vivo; details: for relative efficacy compared with dimefluthrin: incense coil 0.04 w/w %, from KT50 of table 1; for KT50: pesticide incense coil, 0.04 w/w % active ingredient, ignited and removed after 1 min, 20 female mosquitoes
Method: To a mixture of corn starch, carbon powder and wood flour (1:5:4, 99.96 parts by weight) was added water (120 parts by weight) and the resulting mixture was kneaded, and then dried to give a pesticide incense coil substrate (diameter: 12.0 cm; thickness: 4 mm; one pair of substrates' weight: 40 g).
On the other hand, a 0.4 w/v % solution of compound 1 in kerosene was prepared.
The above solution (4 ml) was uniformly sprayed on the incense coil substrate with a micro-syringe, and then kept for airing at room temperature for 3 hours to get of a pesticide incense coil I containing compound 1 according to the present invention (0.04 w/w %).
Similarly, a 0.4 w/v % solution of compound 2 in kerosene was prepared and a pesticide incense coil II containing compound 2 (0.04 w/w %) was be obtained.
A 0.4 w/v % solution of compound 3 in kerosene was prepared and a pesticide incense coil III containing compound 3 (0.04 w/w %) was obtained;
A 0.4 w/v % solution of compound 4 in kerosene was prepared and a pesticide incense coil IV containing compound 4 (0.04 w/w %) was obtained;
A 0.4 w/v % solution of compound 6 in kerosene was prepared and a pesticide incense coil V containing compound 6 (0.04 w/w %) was obtained;
A 0.4 w/v % solution of dimefluthrin in kerosene was prepared and a pesticide incense coil VI containing dimefluthrin (0.04 w/w %) was obtained.
The efficacy of pesticide coils I-Vi on mosquito were tested and compared according to GB13917.4-92). In particular, the test pests are female Culex pipiens pallens (2-3 days old, fasten). Firstly, 20 test mosquitoes were captured and put into airtight cask testing device with a mosquito-sucking tube, a section of pesticide incense coil to be tested was put on shelves, then ignited and removed after 1 min.

[2] = tested on: sanitary pests; test: Efficacy comparison of stereoisomers in controlling sanitary pests (experiments not detailed); details: for efficacy of isomer relative to other isomers: qualitative statement from applicant's study
[3] = tested on: Mosquito; test: Volatile agent on filter paper hung on the door of a room, mosquito invasion; assay type: in vivo; details: 1 mg on filter paper 20 cm×50 cm, volatilised at room temperature, hung on edge of door
Method: Compound 6 (2,3,5,6-tetrafluoro-4-methoxymethylbenzyl-1R, trans-(Z)-3-(3,3,3-trifluoro-1-prop ylene)-2,2-dimethylcyclopropane carboxylate, 1 mg) was dissolved in acetone (20 ml) to obtain a solution. The resulting solution was distributed on a filter paper (20 cm×50 cm) and air-dried to remove the acetone to obtain a volatile agent.

[4] = tested on: Mosquito; test: Efficacy of aerosol pesticide on mosquito (GB13917.2-92); assay type: in vivo; details: 1 g sprayed
Method: (§1) Compound 1 (0.3 parts by weight) and kerosene (59.7 parts by weight) are mixed under heating to prepare a pesticide. The pesticide was placed in aerosol cans with a valve and then a mixture of propane and butane (40.0 parts by weight) was injected into tank through the valve at positive pressure to get an aerosol pesticide, which contains […] compound 1.
(§2) The efficacy of the aerosol pesticide on Mosquitoes, flies and blattella germanicas were tested according to GB13917.2-92. In particular, the test pests were placed into a tank. After all test pests restored normal activities, 1 g aerosol pesticide from aerosol cans was sprayed into the tank. Take the barrier plate away to make pests exposed to the aerosol pesticide and the number of killed pests was recorded at regular intervals, then all test pests were transferred to a clean cage after 20 mins, the number of dead pests was counted after 24 hours and the mortality of blattella germanicas at 72 h was determined.

[5] = tested on: Blattella germanica; test: Efficacy of aerosol pesticide on blattella germanica (GB13917.2-92); assay type: in vivo; details: 1 g sprayed
Method: as §1, §2

[6] = tested on: Fly; test: Efficacy of aerosol pesticide on fly (GB13917.2-92); assay type: in vivo; details: 1 g sprayed
Method: as §1, §2

[7] = aerosol pesticide from compound 1 (0.3 parts by weight)
[8] = aerosol pesticide, 20 min exposure, 24 h

| SMILES | relative efficacy compared with dimefluthrin [1] | KT50 [1] | efficacy of isomer relative to other isomers [2] | other results |
| --- | --- | --- | --- | --- |
| COCc1c(F)c(F)c(COC(=O)[C@@H]2[C@@H](/C=C\C(F)(F)F)C2(C)C)c(F)c1F (relative stereo) [Compound 6, 2,3,5,6-tetrafluoro-4-methoxymethylbenzyl-1R, trans-(Z)-3-(3,3,3-trifluoro-1-propenyl)-2,2-dimethyl cyclopropane carboxylate] | more than twice that of dimefluthrin | 3.1 min | slightly better than the cis isomer | mosquito invasion of a room [3]: None mosquito invaded |
| COCc1c(F)c(F)c(COC(=O)[C@@H]2C(/C=C\C(F)(F)F)C2(C)C)c(F)c1F (stereo partly drawn) [Compound 1, 2,3,5,6-tetrafluoro-4-methoxymethylbenzyl-1R-(Z)-3-(3,3,3-trifluoro-1-propenyl)-2,2-dimethylcyclopropane carboxylate] | more than twice that of dimefluthrin | 3.2 min | highly active isomer | KT50 (mosquito/fly/cockroach) [4, 7]: 4.8 min; Mortality during 24 h [4, 8]: 100%; KT50 (mosquito/fly/cockroach) [5, 7]: 6.2 min; Mortality (72 h) ([5]; aerosol pesticide, 20 min exposure, 72 h): 90%; cross resistance compared to traditional pyrethroid products such as allethrin ([2]; control of sanitary pests): doesn't have cross resistance; KT50 (mosquito/fly/cockroach) [6, 7]: 4.3 min; Mortality during 24 h [6, 8]: 100% |
| COCc1c(F)c(F)c(COC(=O)[C@@H]2C(/C=C/C(F)(F)F)C2(C)C)c(F)c1F (stereo partly drawn) [Compound 2, 2,3,5,6-tetrafluoro-4-methoxymethylbenzyl-1R-(E)-3-(3,3,3-trifluoro-1-propenyl)-2,2-dimethylcyclopropane carboxylate] | – | 5.2 min | – | – |
| COCc1c(F)c(F)c(COC(=O)[C@H]2C(/C=C\C(F)(F)F)C2(C)C)c(F)c1F (stereo partly drawn) [Compound 3, 2,3,5,6-tetrafluoro-4-methoxymethylbenzyl-1S-(Z)-3-(3,3,3-trifluoro-1-propenyl)-2,2-dimethyl cyclopropane carboxylate] | – | 5.1 min | – | – |
| COCc1c(F)c(F)c(COC(=O)[C@H]2C(/C=C/C(F)(F)F)C2(C)C)c(F)c1F (stereo partly drawn) [Compound 4, 2,3,5,6-tetrafluoro-4-methoxymethylbenzyl-1S-(E)-3-(3,3,3-trifluoro-1-propenyl)-2,2-dimethylcyclopropane carboxylate] | – | 8.2 min | – | – |
| COCc1c(F)c(F)c(COC(=O)C2C(C=C(C)C)C2(C)C)c(F)c1F (stereo not drawn) [Dimefluthrin, dimefluthrin, reference compound] | – | 7.6 min | – | – |
